Laboratory results reported in ChEMBL document CHEMBL1201862, “PubChem BioAssay data set” (2004).
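How tested: cells in 96-well plates exposed to compound for 48 hours at five concentrations. The concentration for 50% growth inhibition is given as GI50.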 Calls of active or inactive are those of the source. No stated cut-off is given here; in the data, active = GI50 up to about 1.1 µM and inactive = higher.

What was measured:
Assay in all cases: NCI anticancer screen, dose series, 48 h
DLD-1 = system: DLD-1
DMS-114 = system: DMS-114
HOP-18 = system: HOP-18
KM-20L2 = system: KM-20L2
SNB-78 = system: SNB-78
XF498 = system: XF498
LXFL 529 = system: LXFL 529
M19-MEL = system: M19-MEL
RXF 631 = system: RXF 631

SMILES	GI50 (DLD-1)	GI50 (DMS-114)	GI50 (HOP-18)	GI50 (KM-20L2)	GI50 (SNB-78)	GI50 (XF498)	GI50 (LXFL 529)	GI50 (M19-MEL)	GI50 (RXF 631)
COc1cc(C2c3cc4c(cc3[C@@H](Nc3ccc(C#N)cc3)C3COC(=O)[C@H]23)OCO4)cc(OC)c1O (stereo partly specified)	1.27 µM (inactive)	0.977 µM (active)	1.16 µM (inactive)	2.33 µM (inactive)	3.03 µM (inactive)	3.2 µM (inactive)	–	–	–
CC(=O)n1cc(CC(C)O)c(=O)[nH]c1=O (stereo unspecified)	> 100 µM (inactive)	> 100 µM (inactive)	> 100 µM (inactive)	> 100 µM (inactive)	> 100 µM (inactive)	> 100 µM (inactive)	> 100 µM (inactive)	> 100 µM (inactive)	> 100 µM (inactive)
O=C(O)C(CS)Nc1c2ccccc2nc2ccccc12 (stereo unspecified)	78.9 µM (inactive)	27.7 µM (inactive)	–	49.8 µM (inactive)	–	24.9 µM (inactive)	> 100 µM (inactive)	57 µM (inactive)	–
OC1OC2COC(c3ccccc3)OC2C(O)C1O (stereo unspecified)	> 100 µM (inactive)	> 100 µM (inactive)	> 100 µM (inactive)	> 100 µM (inactive)	> 100 µM (inactive)	> 100 µM (inactive)	> 100 µM (inactive)	> 100 µM (inactive)	–
Cc1ccc(S(=O)(=O)N/N=C(\c2nc3ccc(Cl)cc3[nH]c2=O)C(O)c2ccco2)cc1 (stereo unspecified)	> 100 µM (inactive)	22.3 µM (inactive)	> 100 µM (inactive)	> 100 µM (inactive)	–	–	> 100 µM (inactive)	> 100 µM (inactive)	–
CS(=O)(=O)C1S(=O)(=O)OCCOS1(=O)=O	> 100 µM (inactive)	> 100 µM (inactive)	73.6 µM (inactive)	> 100 µM (inactive)	> 100 µM (inactive)	> 100 µM (inactive)	> 100 µM (inactive)	> 100 µM (inactive)	> 100 µM (inactive)
COc1ccc(Br)c(C(=O)N2CCc3ccccc32)c1N	42.9 µM (inactive)	30.4 µM (inactive)	47.9 µM (inactive)	69.5 µM (inactive)	> 100 µM (inactive)	31.9 µM (inactive)	59.8 µM (inactive)	45.6 µM (inactive)	–
O=C1CCCC(O)=C1SC1=C(O)CCCC1=O	35.2 µM (inactive)	–	> 100 µM (inactive)	–	> 100 µM (inactive)	–	–	> 100 µM (inactive)	> 100 µM (inactive)
Ic1ncnc2c1ncn2C1CCCO1 (stereo unspecified)	> 100 µM (inactive)	> 100 µM (inactive)	> 100 µM (inactive)	> 100 µM (inactive)	> 100 µM (inactive)	> 100 µM (inactive)	–	> 100 µM (inactive)	–
COc1ccc2c3ccc4c(c3n(C)c2c1)C(=O)C=CC4=O	15.3 µM (inactive)	–	36.7 µM (inactive)	> 100 µM (inactive)	69.2 µM (inactive)	24.4 µM (inactive)	15.2 µM (inactive)	18.3 µM (inactive)	–
CC1=C(C(=O)NCc2ccccc2)C(c2ccccc2[N+](=O)[O-])C(C(=O)NCc2ccccc2)=C(C)N1	6.73 µM (inactive)	12 µM (inactive)	20.3 µM (inactive)	16.5 µM (inactive)	11.8 µM (inactive)	18 µM (inactive)	10.7 µM (inactive)	11.4 µM (inactive)	15.4 µM (inactive)
Cc1cn(C2CC(O)C(COC(=O)c3ccccc3)O2)c(=O)[nH]c1=O (stereo unspecified)	> 100 µM (inactive)	–	> 100 µM (inactive)	> 100 µM (inactive)	> 100 µM (inactive)	> 100 µM (inactive)	> 100 µM (inactive)	> 100 µM (inactive)	> 100 µM (inactive)
COc1ccc(/C=C/COC(C)=O)cc1OC	–	> 100 µM (inactive)	–	> 100 µM (inactive)	> 100 µM (inactive)	–	> 100 µM (inactive)	> 100 µM (inactive)	–
C[N+]1(C)C/C(=C/c2ccc(F)cc2)C(=O)/C(=C\c2ccc(F)cc2)C1	30.2 µM (inactive)	22.8 µM (inactive)	> 100 µM (inactive)	> 100 µM (inactive)	> 100 µM (inactive)	–	38.9 µM (inactive)	36.1 µM (inactive)	> 100 µM (inactive)
COc1ccc2c(c1)CCc1c(C(C)=O)c3ccccc3n1C2	42.4 µM (inactive)	31.7 µM (inactive)	58.6 µM (inactive)	–	52 µM (inactive)	12.9 µM (inactive)	12.1 µM (inactive)	57.5 µM (inactive)	42.1 µM (inactive)
O=C(/C=C/c1ccccc1O)C(c1ccccc1)c1ccccc1	> 100 µM (inactive)	63.2 µM (inactive)	> 100 µM (inactive)	> 100 µM (inactive)	> 100 µM (inactive)	> 100 µM (inactive)	> 100 µM (inactive)	> 100 µM (inactive)	> 100 µM (inactive)
O=[N+]([O-])c1cccc(-c2oc(/C=N/c3ccccc3)c([N+](=O)[O-])c2-c2cccc([N+](=O)[O-])c2)c1	> 100 µM (inactive)	> 100 µM (inactive)	–	> 100 µM (inactive)	> 100 µM (inactive)	–	> 100 µM (inactive)	> 100 µM (inactive)	> 100 µM (inactive)
CC(C)=CCCC1(C)C=Cc2c(c(C)cc3c2[nH]c2cc(O)ccc23)O1 (stereo unspecified)	> 25 µM (inactive)	> 25 µM (inactive)	7.36 µM (inactive)	> 25 µM (inactive)	–	> 25 µM (inactive)	> 25 µM (inactive)	> 25 µM (inactive)	–
CC(C)(C)c1ccc2c(c1)S(=O)(=O)Nc1cccc(c1)NS(=O)(=O)c1cc(C(C)(C)C)ccc1OCCOCCO2	> 100 µM (inactive)	> 100 µM (inactive)	> 100 µM (inactive)	–	> 100 µM (inactive)	–	–	> 100 µM (inactive)	> 100 µM (inactive)
C#CCn1c(=O)[nH]c(=O)c2cccnc21	> 100 µM (inactive)	> 10 µM (inactive)	63.5 µM (inactive)	> 100 µM (inactive)	> 100 µM (inactive)	> 100 µM (inactive)	> 100 µM (inactive)	–	> 100 µM (inactive)
Cn1c(=O)c2nc3sc4ccccc4c(=N)n3c2n(C)c1=O	> 100 µM (inactive)	> 100 µM (inactive)	> 100 µM (inactive)	–	> 100 µM (inactive)	> 100 µM (inactive)	> 100 µM (inactive)	> 100 µM (inactive)	> 100 µM (inactive)
CCOC(=O)C(C)(C)Oc1ccc(/C=C/C(=O)c2ccc(Cl)cc2)cc1	14.1 µM (inactive)	17.4 µM (inactive)	–	17.8 µM (inactive)	–	18.8 µM (inactive)	15.8 µM (inactive)	20 µM (inactive)	19.5 µM (inactive)
CC#CCC1CCC(OCC)=CC1=O (stereo unspecified)	> 100 µM (inactive)	> 100 µM (inactive)	> 100 µM (inactive)	> 100 µM (inactive)	> 100 µM (inactive)	> 100 µM (inactive)	> 100 µM (inactive)	> 100 µM (inactive)	> 100 µM (inactive)
O=P1(O)c2ccccc2Nc2cc(C(F)(F)F)ccc21	> 100 µM (inactive)	> 100 µM (inactive)	> 100 µM (inactive)	> 100 µM (inactive)	> 100 µM (inactive)	> 100 µM (inactive)	> 100 µM (inactive)	> 100 µM (inactive)	–
c1ccc2c(c1)C1=NCCN1c1ccccc1-2	1.77 µM (inactive)	–	2.59 µM (inactive)	2.92 µM (inactive)	4 µM (inactive)	–	3.06 µM (inactive)	3.44 µM (inactive)	2.77 µM (inactive)
CCOc1ccccc1NC(=O)CCC(=O)NN	> 100 µM (inactive)	–	–	> 100 µM (inactive)	> 100 µM (inactive)	> 100 µM (inactive)	> 100 µM (inactive)	–	> 100 µM (inactive)
